Results published in paper PMC5042751 (Molecular Medicine Reports, 2016).
Read-outs that look alike come from different tables or passages of the source.

Key:
[1] = tested on: Cyp3a1
[2] = tested on: OATP2B1; experiment: Intestinal protein expression by western blotting; type: in vivo, rats; settings: rat small intestine
[3] = tested on: Cyp3a2
[4] = tested on: OATP1B2; experiment: Hepatic protein expression by western blotting; type: in vivo, rats; settings: rat liver
[5] = tested on: Mrp2; experiment: Intestinal and hepatic protein expression by western blotting; type: in vivo, rats
[6] = tested on: Cyp3a2; remark: listed apart in the source
[7] = tested on: Ugt1a1; experiment: Intestinal and hepatic mRNA expression by RT-qPCR; type: in vivo, rats
[8] = tested on: P-gp; settings: for decrease in protein expression level of P-gp: Que 100 mg/kg (high-dose) oral 7 days vs control
[9] = tested on: Mdr1; settings: for decrease in mRNA expression level of Mdr1: rat liver
[10] = tested on: Slco1b2; experiment: Hepatic mRNA expression by RT-qPCR; type: in vivo, rats; settings: rat liver
[11] = tested on: Bcrp; experiment: Intestinal and hepatic mRNA expression by RT-qPCR; type: in vivo, rats
[12] = tested on: Bcrp; experiment: Intestinal and hepatic protein expression by western blotting; type: in vivo, rats
[13] = tested on: Ugt1a1; experiment: as above; type: in vivo, rats
[14] = tested on: Mrp2; experiment: Intestinal and hepatic mRNA expression by RT-qPCR; type: in vivo, rats
[15] = tested on: Slco2b1; experiment: Intestinal mRNA expression by RT-qPCR; type: in vivo, rats; settings: rat small intestine
[16] = tested on: Cyp3a1; remark: listed apart in the source
[17] = rat liver, Que 25 mg/kg (low-dose) oral 7 days vs control
[18] = rat liver, Que 50 mg/kg (moderate-dose) oral 7 days vs control
[19] = rat liver, Que 100 mg/kg (high-dose) oral 7 days vs control
[20] = rat liver, Que 100 mg/kg with CsA 10 mg/kg oral 7 days (Que-WC) vs CsA alone
[21] = rat small intestine, Que 25 mg/kg oral 7 days without CsA (Que-WOC) vs control
[22] = rat small intestine, Que 50 mg/kg oral 7 days without CsA (Que-WOC) vs control
[23] = rat small intestine, Que 100 mg/kg oral 7 days without CsA (Que-WOC) vs control
[24] = Que 25 mg/kg oral 7 days without CsA (Que-WOC) vs control
[25] = Que 50 mg/kg oral 7 days without CsA (Que-WOC) vs control
[26] = Que 100 mg/kg oral 7 days without CsA (Que-WOC) vs control
[27] = rat liver, Que 25 mg/kg oral 7 days without CsA (Que-WOC) vs control
[28] = rat liver, Que 25 mg/kg with CsA 10 mg/kg oral 7 days (Que-WC) vs CsA alone
[29] = rat liver, Que 50 mg/kg oral 7 days without CsA (Que-WOC) vs control
[30] = rat liver, Que 50 mg/kg with CsA 10 mg/kg oral 7 days (Que-WC) vs CsA alone
[31] = rat liver, Que 100 mg/kg oral 7 days without CsA (Que-WOC) vs control
[32] = Que 50 mg/kg with CsA 10 mg/kg oral 7 days (Que-WC) vs CsA treatment
[33] = Que 100 mg/kg with CsA 10 mg/kg oral 7 days (Que-WC) vs CsA treatment
[34] = rat liver, Que 100 mg/kg with CsA 10 mg/kg oral 7 days (Que-WC) vs CsA treatment

O=c1c(O)c(-c2ccc(O)c(O)c2)oc2cc(O)cc(O)c12 [Que, 3,3′,4′,5,7-pentahydroxyflavone]
change in protein expression level of CYP3A1 [1, 17]: did not produce significant effects
change in protein expression level of CYP3A1 [1, 18]: did not produce significant effects
decrease in protein expression level of CYP3A1 [1, 19]: 70%
decrease in protein expression level of CYP3A1 [1, 20]: 56%
decrease in protein expression level of CYP3A1 [1, 21]: 17%
decrease in protein expression level of CYP3A1 [1, 22]: 45%
decrease in protein expression level of CYP3A1 [1, 23]: 91%
change in protein expression level of OATP2B1 [2, 24]: did not produce a significant effect
decrease in protein expression level of OATP2B1 [2, 25]: 43%
decrease in protein expression level of OATP2B1 [2, 26]: 76%
decrease in mRNA expression level of Cyp3a2 [3, 27]: 21%
decrease in mRNA expression level of Cyp3a2 [3, 28]: 16%
decrease in mRNA expression level of Cyp3a2 [3, 29]: 37%
decrease in mRNA expression level of Cyp3a2 [3, 30]: 48%
decrease in mRNA expression level of Cyp3a2 [3, 31]: 49%
decrease in mRNA expression level of Cyp3a2 [3, 20]: 57%
decrease in mRNA expression level of Cyp3a2 [3, 21]: 61%
decrease in mRNA expression level of Cyp3a2 [3, 22]: 70%
decrease in mRNA expression level of Cyp3a2 [3, 23]: 90%
change in protein expression level of OATP1B2 [4, 24]: did not produce a significant effect
decrease in protein expression level of OATP1B2 [4, 25]: 48%
decrease in protein expression level of OATP1B2 [4, 32]: 38%
decrease in protein expression level of OATP1B2 [4, 26]: 86%
decrease in protein expression level of OATP1B2 [4, 33]: 72%
decrease in protein expression level of MRP2 [5, 27]: 14%
decrease in protein expression level of MRP2 ([5]; rat liver, Que 25 mg/kg with CsA 10 mg/kg oral 7 days (Que-WC) vs CsA treatment): 22%
decrease in protein expression level of MRP2 [5, 29]: 27%
decrease in protein expression level of MRP2 ([5]; rat liver, Que 50 mg/kg with CsA 10 mg/kg oral 7 days (Que-WC) vs CsA treatment): 23%
decrease in protein expression level of MRP2 [5, 31]: 58%
decrease in protein expression level of MRP2 [5, 34]: 35%
decrease in protein expression level of MRP2 [5, 21]: 13%
decrease in protein expression level of MRP2 [5, 22]: 45%
decrease in protein expression level of MRP2 [5, 23]: 93%
change in protein expression level of CYP3A2 [6, 17]: did not produce significant effects
change in protein expression level of CYP3A2 [6, 18]: did not produce significant effects
decrease in protein expression level of CYP3A2 [6, 19]: 73%
decrease in protein expression level of CYP3A2 [6, 20]: 54%
decrease in protein expression level of CYP3A2 [6, 21]: 14%
decrease in protein expression level of CYP3A2 [6, 22]: 40%
decrease in protein expression level of CYP3A2 [6, 23]: 95%
decrease in mRNA expression of Ugt1a1 [7, 27]: 41%
decrease in mRNA expression level of Ugt1a1 [7, 28]: 28%
decrease in mRNA expression of Ugt1a1 [7, 29]: 81%
decrease in mRNA expression level of Ugt1a1 [7, 30]: 71%
decrease in mRNA expression of Ugt1a1 [7, 31]: 92%
decrease in mRNA expression level of Ugt1a1 [7, 20]: 92%
decrease in mRNA expression of Ugt1a1 [7, 21]: 20%
decrease in mRNA expression of Ugt1a1 [7, 22]: 76%
decrease in mRNA expression of Ugt1a1 [7, 23]: 84%
change in protein expression level of P-gp [8, 17]: did not produce a significant effect
change in protein expression level of P-gp [8, 18]: did not produce a significant effect
decrease in protein expression level of P-gp ([8]; rat liver): 84%
decline in protein expression level of P-gp [8, 34]: 76%
change in protein expression level of P-gp ([8]; rat small intestine, Que 25 mg/kg (low-dose) oral 7 days vs control): did not produce a significant effect
change in protein expression level of P-gp ([8]; rat small intestine, Que 50 mg/kg (moderate-dose) oral 7 days vs control): did not produce a significant effect
decrease in protein expression level of P-gp ([8]; rat small intestine): 81%
decrease in mRNA expression level of Mdr1 [9, 24]: 64%
decrease in mRNA expression level of Mdr1 ([9]; Que 25 mg/kg with CsA 10 mg/kg oral 7 days (Que-WC) vs CsA alone): 68%
decrease in mRNA expression level of Mdr1 [9, 25]: 87%
decrease in mRNA expression level of Mdr1 ([9]; Que 50 mg/kg with CsA 10 mg/kg oral 7 days (Que-WC) vs CsA alone): 68%
decrease in mRNA expression level of Mdr1 [9, 26]: 91%
decrease in mRNA expression level of Mdr1 ([9]; Que 100 mg/kg with CsA 10 mg/kg oral 7 days (Que-WC) vs CsA alone): 90%
change in mRNA expression level of Mdr1 [9, 21]: did not produce a significant effect
increase in mRNA expression level of Mdr1 [9, 22]: 75%
increase in mRNA expression level of Mdr1 [9, 23]: 80%
decrease in mRNA expression level of Slco1b2 [10, 24]: 79%
decrease in mRNA expression level of Slco1b2 ([10]; Que 25 mg/kg with CsA 10 mg/kg oral 7 days (Que-WC) vs CsA treatment): 72%
decrease in mRNA expression level of Slco1b2 [10, 25]: 92%
decrease in mRNA expression level of Slco1b2 [10, 32]: 90%
decrease in mRNA expression level of Slco1b2 [10, 26]: 95%
decrease in mRNA expression level of Slco1b2 [10, 33]: 94%
decrease in mRNA expression level of Bcrp [11, 27]: 55%
decrease in mRNA expression level of Bcrp [11, 28]: 68%
decrease in mRNA expression level of Bcrp [11, 29]: 77%
decrease in mRNA expression level of Bcrp [11, 30]: 77%
decrease in mRNA expression level of Bcrp [11, 31]: 88%
decrease in mRNA expression level of Bcrp [11, 20]: 89%
decrease in mRNA expression level of Bcrp [11, 21]: 46%
decrease in mRNA expression level of Bcrp [11, 22]: 70%
decrease in mRNA expression level of Bcrp [11, 23]: 92%
decrease in protein expression level of BCRP [12, 27]: 7%
decrease in protein expression level of BCRP [12, 28]: 23%
decrease in protein expression level of BCRP [12, 29]: 27%
decrease in protein expression level of BCRP [12, 30]: 31%
decrease in protein expression level of BCRP [12, 31]: 75%
decrease in protein expression level of BCRP [12, 20]: 67%
decrease in protein expression level of BCRP [12, 21]: 17%
decrease in protein expression level of BCRP [12, 22]: 49%
decrease in protein expression level of BCRP [12, 23]: 90%
decrease in protein expression level of UGT1A1 [13, 27]: 16%
change in protein expression level of UGT1A1 [13, 28]: did not produce significant effects
decrease in protein expression level of UGT1A1 [13, 29]: 42%
change in protein expression level of UGT1A1 [13, 30]: did not produce significant effects
decrease in protein expression level of UGT1A1 [13, 31]: 87%
decrease in protein expression level of UGT1A1 [13, 20]: 72%
decrease in protein expression level of UGT1A1 [13, 21]: 12%
decrease in protein expression level of UGT1A1 [13, 22]: 41%
decrease in protein expression level of UGT1A1 [13, 23]: 91%
decrease in mRNA expression level of Mrp2 [14, 27]: 45%
decrease in mRNA expression level of Mrp2 [14, 28]: 38%
decrease in mRNA expression level of Mrp2 [14, 29]: 52%
decrease in mRNA expression level of Mrp2 [14, 30]: 36%
decrease in mRNA expression level of Mrp2 [14, 31]: 98%
decrease in mRNA expression level of Mrp2 [14, 20]: 99%
decrease in mRNA expression level of Mrp2 [14, 21]: 45%
decrease in mRNA expression level of Mrp2 [14, 22]: 69%
decrease in mRNA expression level of Mrp2 [14, 23]: 96%
decrease in mRNA expression level of Slco2b1 [15, 24]: 84%
decrease in mRNA expression level of Slco2b1 [15, 25]: 92%
decrease in mRNA expression level of Slco2b1 [15, 26]: 97%
decrease in mRNA expression level of Cyp3a1 [16, 27]: 37%
decrease in mRNA expression level of Cyp3a1 [16, 28]: 31%
decrease in mRNA expression level of Cyp3a1 [16, 29]: 86%
decrease in mRNA expression level of Cyp3a1 [16, 30]: 77%
decrease in mRNA expression level of Cyp3a1 [16, 31]: 98%
decrease in mRNA expression level of Cyp3a1 [16, 20]: 65%
decrease in mRNA expression level of Cyp3a1 [16, 21]: 45%
decrease in mRNA expression level of Cyp3a1 [16, 22]: 83%
decrease in mRNA expression level of Cyp3a1 [16, 23]: 88%
